What was measured:
[1] = system: B. microti proteasome β5 subunit; test: β5 proteasome activity in B. microti lysates (Suc-LLVY-amc); assay type: biochemical, Babesia microti; conditions: 133.33 nM inhibitor, relative to DMSO
Description: B. divergens and B. microti protein lysates were prepared from infected red blood cells. Briefly, red blood cells were lysed with 0.15% saponin prepared in 1× Phosphate-Buffered Saline (PBS), pH 7.5, to release intact parasites. Parasites were washed with 1× PBS, pH 7.5 (PBS), by centrifugation and the pellets were stored at −80 °C in PBS plus 20% glycerol. To prepare protein lysates for enzymatic assays, parasites were thawed and transferred to 50 mM HEPES (pH 7.5), 10 μM E64, 100 μM AESBF, 1 μM Pepstatin A, and 1 mM DTT (all Sigma-Aldrich). Cells were ruptured by ultrasonication with an amplitude of 0.5 for 3 cycles of 15 s on ice. To prepare protein lysates for activity-based probing and proteasome purification, parasites were thawed and transferred to 20 mM Tris-HCl, pH 7.5, 1 mM DTT, 10 μM E64, and 5% glycerol. The lysate was sonicated on ice for 3 times and clarified by centrifugation at 17,000g for 10 min at 4 °C.
To further improve the detection of the β5 subunit activity with the Suc-LLVY-amc substrate of the Babesia proteasome as previously published,[27] we aimed to further optimize assay conditions. However, to reduce the number of experimental animals in the study, assay conditions were optimized using protein lysates of B. divergens, which can be grown in vitro, instead of B. microti lysates, which need to be maintained in mice. […] Two assay buffers were evaluated. […] The release of the AMC fluorophore was monitored at 37 °C in a Synergy HTX multimode reader (BioTek) with excitation and emission wavelengths set to 340 and 460 nm, respectively.
Proteasome activity in B. microti and B. divergens lysates was screened in the presence of carmaphycin B (CPB) and numerous analogs that were previously designed to target the P. falciparum 20S proteasome.[30] […] The release of the AMC fluorophore was monitored at 37 °C in a Synergy HTX multimode reader (BioTek Instruments, Winooski, VT) with excitation and emission wavelengths set to 340 and 460 nm, respectively. Activity was quantified as RFU per second and normalized to the DMSO control reactions.

[2] = system: B. divergens; test: B. divergens growth in bovine erythrocyte cultures (flow cytometry parasitemia); assay type: cell-based, Babesia divergens; conditions: for EC50: bovine erythrocyte cultures, 48 h, dose-response
Description: Blood stage cultures of B. divergens (strain 2210A G2) were maintained in erythrocytes from defibrinated bovine blood (BioTrading Benelux B.V.). Parasites were multiplied in in vitro erythrocyte cultures containing RPMI 1640 medium (Lonza, cat. no. BE12-115F) supplemented with 50 μg/mL gentamicin (Lonza), 0.25 μg/mL amphotericin B (Sigma-Aldrich), and 20% (v/v) heat-inactivated fetal calf serum (Lonza, inactivation at 56 °C for 30 min before use). Cells were cultured at 37 °C in a 5% CO2 environment. B. microti (Franca) (ATTC PRA-99) was maintained by continuous intraperitoneal passages in BALB/c female mice (Charles River Laboratories). All laboratory animals were treated in accordance with the Animal Protection Law of the Czech Republic No. 246/1992 Sb., ethics approval no. 25/2018. The study was approved by the Institute of Parasitology, Biology Centre of the Czech Academy of Sciences and the Central Committee for the Animal Welfare, Czech Republic (protocol no. 1/2015).
To evaluate the effect of inhibitors on B. divergens replication, cultures (5% hematocrit) containing 2% parasitemia were cultivated in media. Single concentration screens were first performed using 600 nM of compound and then dose–response assays (5400 to 2.34 nM) were subsequently performed for compounds of interest. Assays were performed twice in triplicate wells in a 96-well tissue culture plate format (TPP, Switzerland) and media containing inhibitors were replaced at 12 h intervals for a total of 48 h. DMSO diluted in medium (0.1%) served as a vehicle control. The parasitemia of intraerythrocytic B. divergens was determined using flow cytometry following the staining of nucleic acids as described previously.[31] Briefly, infected red blood cells were fixed in a solution of 4% paraformaldehyde and 0.025% glutaraldehyde in PBS for 30 min at room temperature (RT). […] Parasitemia was analyzed using a FACS CantoII flow cytometer and Diva software provided by BD Biosciences. The EC50 of compounds in the dose–response inhibition was determined in GraphPad Prism 10 using nonlinear regression.

Structure (SMILES): CCCCCC(=O)N[C@H](C(=O)N[C@@H](CCS(C)(=O)=O)C(=O)N[C@@H](CC(C)C)C(=O)[C@@]1(C)CO1)C(C)C [carmaphycin B]
- inhibition of β5 activity in B. microti lysate (in words) [1]: to the same extent as CFZ
- inhibition of β5 activity in B. microti lysate (in words) ([1]; listed as CPB): inhibited
- Selectivity index (B. divergens over HepG2 cells) ([2]; HepG2 EC50 / B. divergens EC50): 0.21
- EC50 [2]: 59.5 ± 12.8 nM
- EC50 ([2]; listed as CPB): 59.5 ± 12.8 nM

Reference: publication PMC11561622, “Evaluating Antimalarial Proteasome Inhibitors for Efficacy in Babesia Blood Stage Cultures” (ACS Omega, 2024)
